Source: US20200345805A1, “COMPOSITIONS AND METHODS USEABLE FOR TREATMENT OF DRY EYE” (priority 2019, published 2020)
Non-standard residues stand in square brackets, D forms with d. Residues, ends and D or L forms follow the SMILES beside them. Cya = N[C@@H](CS(=O)(=O)O)C(=O)O

Test system: Integrin αMβ2
Experiment: Expression of integrin αMβ2 in ischemic retinopathy of prematurity (ROP) mice after Risuteganib treatment
Type: in vivo
Conditions: FIG. 1
Text: FIG. 1 is a graphic showing expression of integrin αMβ2 in ischemic retinopathy of prematurity (ROP) mice after Risuteganib treatment. Risuteganib is a small peptide that acts as an integrin inhibitor. Risuteganib targets multiple integrin subunits, including Integrin αMβ2 which is sometimes referred to as the “compliment 3 receptor” and is actively involved in inflammatory pathways and, in particular, the compliment 3 pathway. […] By causing such inhibition of Integrin αMβ2 Risuteganib may interfere with leucocyte adhesion and trans-endothelial migration, thereby resulting in decreased inflammation and improvement in the symptoms of Dry Eye.

For C[C@@H](O)[C@H](NC(=O)[C@H](CS(=O)(=O)O)NC(=O)CNC(=O)[C@H](CCCNC(=N)N)NC(=O)CN)C(=O)N1CCC[C@H]1C(=O)O [Risuteganib, Glycyl-L-arginylglycyl-3-sulfo-L-alanyl-L-threonyl-L-proline] (H-GRG[Cya]TP-OH), the “expression of Integrin αMβ2” value was “decreases expression”.
